Experimental data taken from patent US20210045385A1, “PYRIDAZINONE-SUBSTITUTED KETOXIMES AS HERBICIDES” (FMC Corporation, priority 2018, published 2021).

Legend:
Format in all cases: in vivo
corn (Zea mays) = experiment: Test A postemergence, visual plant response rating; settings: for Corn plant response rating: Postemergence, 125 g ai/ha, 0 to 100 scale (0 no effect, 100 complete control)
In short: (§1)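 Formulated in a non-phytotoxic solvent mixture including surfactant, each test chemical was sprayed onto the soil surface after sowing, or onto seedlings 2 to 10 cm high. Roughly 10 days later, plants were compared with untreated controls and rated for injury from 0 (no effect) to 100 (complete control).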

[1] = tested on: barnyardgrass (Echinochloa crus-galli); experiment: Test A postemergence, visual plant response rating; settings: for Barnyardgrass plant response rating: Postemergence, 125 g ai/ha, 0 to 100 scale (0 no effect, 100 complete control)
In short: as §1

[2] = tested on: foxtail, giant (giant foxtail, Setaria faberii); experiment: Test A postemergence, visual plant response rating; settings: for Foxtail, Giant plant response rating: Postemergence, 125 g ai/ha, 0 to 100 scale (0 no effect, 100 complete control)
In short: as §1

[3] = tested on: wheat (Triticum aestivum); experiment: Test A postemergence, visual plant response rating; settings: for Wheat plant response rating: Postemergence, 125 g ai/ha, 0 to 100 scale (0 no effect, 100 complete control)
In short: as §1

[4] = tested on: ragweed (common ragweed, Ambrosia elatior); experiment: Test A postemergence, visual plant response rating; settings: for Ragweed plant response rating: Postemergence, 125 g ai/ha, 0 to 100 scale (0 no effect, 100 complete control)
In short: as §1

[5] = tested on: galium (catchweed bedstraw, Galium aparine); experiment: Test A postemergence, visual plant response rating; settings: for Galium plant response rating: Postemergence, 125 g ai/ha, 0 to 100 scale (0 no effect, 100 complete control)
In short: as §1

[6] = tested on: pigweed (Amaranthus retroflexus); experiment: Test A postemergence, visual plant response rating; settings: for Pigweed plant response rating: Postemergence, 125 g ai/ha, 0 to 100 scale (0 no effect, 100 complete control)
In short: as §1

kochia (Kochia scoparia) [7] = experiment: Test A postemergence, visual plant response rating; settings: for Kochia plant response rating: Postemergence, 125 g ai/ha, 0 to 100 scale (0 no effect, 100 complete control)
In short: as §1

[8] = tested on: blackgrass (Alopecurus myosuroides); experiment: Test A postemergence, visual plant response rating; settings: for Blackgrass plant response rating: Postemergence, 125 g ai/ha, 0 to 100 scale (0 no effect, 100 complete control)
In short: as §1

[9] = tested on: Italian ryegrass (Lolium multiflorum); experiment: Test A postemergence, visual plant response rating; settings: for Ryegrass, Italian plant response rating: Postemergence, 125 g ai/ha, 0 to 100 scale (0 no effect, 100 complete control)
In short: as §1

[10] = tested on: barnyardgrass (Echinochloa crus-galli); experiment: Test B flooded paddy test, visual plant response rating; settings: 250 g ai/ha, Flood, applied to paddy water, 2-leaf stage, evaluated after 13 to 15 days
In short: (§2)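 Greenhouse paddy conditions applied: two-leaf plants, a 3 cm flood above the soil surface maintained throughout, and compound added to the water rather than the foliage. Plants were judged visually against controls at 13 to 15 days.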

[11] = tested on: ducksalad (Heteranhera limosa); experiment: as above; settings: 250 g ai/ha, Flood, applied to paddy water, 2-leaf stage, evaluated after 13 to 15 days
In short: as §2

[12] = tested on: sedge, umbrella (small-flower umbrella sedge, Cyperus difformis); experiment: as above; settings: 250 g ai/ha, Flood, applied to paddy water, 2-leaf stage, evaluated after 13 to 15 days
In short: as §2

rice (Oryza sativa) = experiment: as above; settings: 250 g ai/ha, Flood, applied to paddy water, 2-leaf stage, evaluated after 13 to 15 days
In short: as §2

[13] = tested on: barnyardgrass (Echinochloa crus-galli); experiment: Test A preemergence, visual plant response rating; settings: for Barnyardgrass plant response rating: preemergence, 0 to 100 scale, 0 no effect, 100 complete control; for Barnyardgrass plant response rating (0 to 100 scale): 500 g ai/ha Preemergence, approx. 10 days
In short: as §1

[14] = tested on: foxtail, giant (giant foxtail, Setaria faberii); experiment: Test A preemergence, visual plant response rating; settings: for Foxtail, Giant plant response rating: preemergence, 0 to 100 scale, 0 no effect, 100 complete control; for Foxtail, Giant plant response rating (0 to 100 scale): 500 g ai/ha Preemergence, approx. 10 days
In short: as §1

[15] = tested on: ragweed (common ragweed, Ambrosia elatior); experiment: Test A preemergence, visual plant response rating; settings: for Ragweed plant response rating: preemergence, 0 to 100 scale, 0 no effect, 100 complete control; for Ragweed plant response rating (0 to 100 scale): 500 g ai/ha Preemergence, approx. 10 days
In short: as §1

[16] = tested on: pigweed (Amaranthus retroflexus); experiment: Test A preemergence, visual plant response rating; settings: for Pigweed plant response rating: preemergence, 0 to 100 scale, 0 no effect, 100 complete control; for Pigweed plant response rating (0 to 100 scale): 500 g ai/ha Preemergence, approx. 10 days
In short: as §1

kochia (Kochia scoparia) [17] = experiment: Test A preemergence, visual plant response rating; settings: for Kochia plant response rating: preemergence, 0 to 100 scale, 0 no effect, 100 complete control; for Kochia plant response rating (0 to 100 scale): 500 g ai/ha Preemergence, approx. 10 days
In short: as §1

[18] = tested on: Italian ryegrass (Lolium multiflorum); experiment: Test A preemergence, visual plant response rating; settings: for Ryegrass, Italian plant response rating: preemergence, 0 to 100 scale, 0 no effect, 100 complete control; for Ryegrass, Italian plant response rating (0 to 100 scale): 500 g ai/ha Preemergence, approx. 10 days
In short: as §1

[19] = 500 g ai/ha, postemergence, 0 is no effect, 100 is complete control
[20] = 31 g ai/ha Postemergence, approx. 10 days

SMILES | Corn plant response rating (corn (Zea mays)) | Barnyardgrass plant response rating [1] | Foxtail, Giant plant response rating [2] | Wheat plant response rating [3] | Ragweed plant response rating [4] | Galium plant response rating [5] | Pigweed plant response rating [6] | Kochia plant response rating (kochia (Kochia scoparia) [7]) | Blackgrass plant response rating [8] | Ryegrass, Italian plant response rating [9] | Plant response rating, Barnyardgrass (0 to 100 scale, 0 is no effect, 100 is complete control) [10] | Plant response rating, Ducksalad (0 to 100 scale, 0 is no effect, 100 is complete control) [11] | Plant response rating, Sedge, Umbrella (0 to 100 scale, 0 is no effect, 100 is complete control) [12] | Plant response rating, Rice (0 to 100 scale, 0 is no effect, 100 is complete control) (rice (Oryza sativa)) | Barnyardgrass plant response rating ([13]; 125 g ai/ha) | Foxtail, Giant plant response rating ([14]; 125 g ai/ha) | Ragweed plant response rating ([15]; 125 g ai/ha) | Pigweed plant response rating ([16]; 125 g ai/ha) | Kochia plant response rating (kochia (Kochia scoparia) [17]; 125 g ai/ha) | Ryegrass, Italian plant response rating ([18]; 125 g ai/ha) | other results
CON=C(c1c(O)c(C)nn(C)c1=O)c1ccc(F)c2ccccc12 [Compound 51] | 10 | 30 | 50 | 70 | 80 | 100 | 90 | 80 | 90 | 90 | 15 | 75 | 65 | 15 | 60 | 70 | 90 | 90 | 10 | 70 | Corn plant response rating (0 to 100 scale) (corn (Zea mays); [19]): 20; Barnyardgrass plant response rating (0 to 100 scale) [1, 19]: 80; Foxtail, Giant plant response rating (0 to 100 scale) [2, 19]: 90; Wheat plant response rating (0 to 100 scale) [3, 19]: 90; Ragweed plant response rating (0 to 100 scale) [4, 19]: 100; Galium plant response rating (0 to 100 scale) [5, 19]: 100; Pigweed plant response rating (0 to 100 scale) [6, 19]: 90; Kochia plant response rating (0 to 100 scale) (kochia (Kochia scoparia) [7]; [19]): 90; Blackgrass plant response rating (0 to 100 scale) [8, 19]: 100; Ryegrass, Italian plant response rating (0 to 100 scale) [9, 19]: 100; Barnyardgrass plant response rating (0 to 100 scale) [13]: 80; Foxtail, Giant plant response rating (0 to 100 scale) [14]: 100; Ragweed plant response rating (0 to 100 scale) [15]: 100; Pigweed plant response rating (0 to 100 scale) [16]: 90; Kochia plant response rating (0 to 100 scale) (kochia (Kochia scoparia) [17]): 80; Ryegrass, Italian plant response rating (0 to 100 scale) [18]: 100
CON=C(c1c(O)c(C)nn(C)c1=O)c1ccc(Cl)c2ccccc12 [Compound 130] | 10 | 30 | 30 | 10 | 60 | 80 | 70 | 50 | 50 | 30 | 0 | 0 | 35 | 0 | 0 | 30 | 20 | 50 | 0 | 30 | Corn plant response rating (0 to 100 scale) (corn (Zea mays); [19]): 30; Barnyardgrass plant response rating (0 to 100 scale) [1, 19]: 30; Foxtail, Giant plant response rating (0 to 100 scale) [2, 19]: 70; Wheat plant response rating (0 to 100 scale) [3, 19]: 40; Ragweed plant response rating (0 to 100 scale) [4, 19]: 80; Galium plant response rating (0 to 100 scale) [5, 19]: 90; Pigweed plant response rating (0 to 100 scale) [6, 19]: 80; Kochia plant response rating (0 to 100 scale) (kochia (Kochia scoparia) [7]; [19]): 70; Blackgrass plant response rating (0 to 100 scale) [8, 19]: 70; Ryegrass, Italian plant response rating (0 to 100 scale) [9, 19]: 90; Barnyardgrass plant response rating (0 to 100 scale) [13]: 70; Foxtail, Giant plant response rating (0 to 100 scale) [14]: 60; Ragweed plant response rating (0 to 100 scale) [15]: 50; Pigweed plant response rating (0 to 100 scale) [16]: 50; Kochia plant response rating (0 to 100 scale) (kochia (Kochia scoparia) [17]): 0; Ryegrass, Italian plant response rating (0 to 100 scale) [18]: 50
CON=C(c1c(OC(C)=O)c(C)nn(C)c1=O)c1cccc2ccccc12 [Compound 120] | 0 | 20 | 40 | 0 | 20 | 80 | 50 | 30 | 20 | 30 | 0 | 0 | 0 | 0 | 10 | 50 | 10 | 100 | 10 | 10 | Corn plant response rating (0 to 100 scale) (corn (Zea mays); [20]): 0; Barnyardgrass plant response rating (0 to 100 scale) [1, 20]: 0; Foxtail, Giant plant response rating (0 to 100 scale) [2, 20]: 0; Wheat plant response rating (0 to 100 scale) [3, 20]: 0; Ragweed plant response rating (0 to 100 scale) [4, 20]: 0; Galium plant response rating (0 to 100 scale) [5, 20]: 40; Pigweed plant response rating (0 to 100 scale) [6, 20]: 30; Kochia plant response rating (0 to 100 scale) (kochia (Kochia scoparia) [7]; [20]): 10; Blackgrass plant response rating (0 to 100 scale) [8, 20]: 0; Ryegrass, Italian plant response rating (0 to 100 scale) [9, 20]: 0; Barnyardgrass plant response rating ([13]; 31 g ai/ha): 0; Foxtail, Giant plant response rating ([14]; 31 g ai/ha): 20; Ragweed plant response rating ([15]; 31 g ai/ha): 0; Pigweed plant response rating ([16]; 31 g ai/ha): 60; Kochia plant response rating (kochia (Kochia scoparia) [17]; 31 g ai/ha): 0; Ryegrass, Italian plant response rating ([18]; 31 g ai/ha): 0
